Measured values published in ChEMBL document CHEMBL1649118, “Tissue accumulation of cephalothin in burns: a comparative study by microdialysis of subcutaneous interstitial fluid cephalothin concentrations in burn patients and healthy volunteers” (Antimicrob Agents Chemother, 2009).
In brackets after ≈: the same amount, converted by molar mass.

Legend:
Staphylococcus aureus = assay: Antimicrobial activity against Staphylococcus aureus; format: functional
[1] = Plasma protein binding in burn patient at 1g, iv administered as 5 mins infusion; format: ADME, organism-based; conditions: human, read-out: PPB (converted)
[2] = Drug level in subcutaneous interstitial fluid of healthy human at 1 g, iv administered as 5 mins infusion measured after 240 min; format: ADME, organism-based; conditions: read-out: Drug uptake
Plasma [3] = assay: Fraction unbound in burn patient at 1g, iv administered as 5 mins infusion by microdialysis; format: ADME, organism-based; conditions: human, in vivo
[4] = Time during which concentration exceeded the 5 X MIC for Staphylococcus aureus infected burn patient at burnt tissue site at 1g, iv administered as 5 mins infusion; format: functional
Plasma [5] = assay: Fraction unbound in healthy human plasma at 1g, iv administered as 5 mins infusion by microdialysis; format: ADME, organism-based; conditions: in vivo
[6] = Time during which concentration exceeded the 5 X MIC for Staphylococcus aureus in healthy human at 1g, iv administered as 5 mins infusion; format: functional
[7] = Drug level in subcutaneous interstitial fluid at burnt site of patient at 1 g, iv administered as 5 mins infusion measured after 240 min; format: ADME, organism-based; conditions: human, read-out: Drug uptake
[8] = Fraction unbound in burn patient interstitial fluid at burn site at 1g, iv administered as 5 mins infusion by microdialysis; format: ADME, organism-based; conditions: human, in vivo
[9] = T>MIC in healthy human at 1g, iv administered as 5 mins infusion; format: functional
[10] = Time during which concentration exceeded the 5 X MIC for Staphylococcus aureus infected burn patient at nonburnt tissue site at 1g, iv administered as 5 mins infusion; format: functional
[11] = Fraction unbound in burn patient interstitial fluid at nonburn site at 1g, iv administered as 5 mins infusion by microdialysis; format: ADME, organism-based; conditions: human, in vivo
[12] = T>MIC in Staphylococcus aureus infected burn patient at burnt tissue site at 1g, iv administered as 5 mins infusion; format: functional
[13] = T>MIC in Staphylococcus aureus infected burn patient at nonburnt tissue site at 1g, iv administered as 5 mins infusion; format: functional
[14] = Plasma protein binding in healthy human at 1g, iv administered as 5 mins infusion; format: ADME, organism-based; conditions: read-out: PPB (converted)
[15] = Fraction unbound in healthy human interstitial fluid at 1g, iv administered as 5 mins infusion by microdialysis; format: ADME, organism-based; conditions: in vivo
[16] = Drug level in subcutaneous interstitial fluid at nonburnt site of patient at 1 g, iv administered as 5 mins infusion measured after 240 min; format: ADME, organism-based; conditions: human, read-out: Drug uptake

## CC(=O)OCC1=C(C(=O)O)N2C(=O)[C@@H](NC(=O)Cc3cccs3)[C@H]2SC1 [CEPHALOTHIN]
Staphylococcus aureus
  MIC: 0.2 µg/mL (≈ 0.504 µM)
[1]
  fraction unbound at 5 min: 0.42
[2]
  concentration at 4 h: 540 ng/mL
Plasma [3]
  Cp: 38700 ng/mL
[4]
  T: 191 min
Plasma [5]
  Cp: 17600 ng/mL
[6]
  T: 96 min
[7]
  concentration at 4 h: 2840 ng/mL
[8]
  Cp: 14500 ng/mL
[9]
  T>MIC: 160 min
[10]
  T: 219 min
[11]
  Cp: 8900 ng/mL
[12]
  T>MIC: 285 min
[13]
  T>MIC: 336 min
[14]
  fraction unbound at 5 min: 0.292
[15]
  Cp: 8600 ng/mL
[16]
  concentration at 4 h: 3060 ng/mL
